Article PMC9804224, “Statin activation of skeletal ryanodine receptors (RyR1) is a class effect but separable from HMG‐CoA reductase inhibition” (British Journal of Pharmacology, 2022)
pEC50: −log10 of the molar value. Each block holds one compound with its values, some of them ahead of it.

What was measured:
Format in all cases: biochemical
[1] = biological target: T1, skeletal ryanodine receptor (RyR1) (Ovis aries, UniProt A0ACI6NWU0); experiment: increase of [3H]ryanodine binding to SR membrane vesicles (channel activation); design: native RyR1 in skeletal muscle SR membrane vesicles
[2] = biological target: T1, skeletal ryanodine receptor (RyR1); experiment: single-channel recording in planar lipid bilayers (activation); also [3H]ryanodine binding EC50 […]; design: native RyR1 channels from skeletal muscle heavy SR vesicles
[3] = biological target: T1, skeletal ryanodine receptor (RyR1); experiment: as above; design: native RyR1 channels from skeletal muscle heavy SR vesicles; remark: listed apart in the source

Structure (SMILES): CC[C@H](C)C(=O)O[C@H]1C[C@H](O)C=C2C=C[C@H](C)[C@H](CC[C@@H](O)C[C@@H](O)CC(=O)O)[C@H]21 [pravastatin]
pEC50 [1]: 6.36

pEC50 [2]: 6.89
Structure (SMILES): COCc1c(C(C)C)nc(C(C)C)c(/C=C/[C@@H](O)C[C@@H](O)CC(=O)O)c1-c1ccc(F)cc1 [cerivastatin]

pEC50 ([1]; read-out: EC50): 6.31
Structure (SMILES): CC(C)c1nc(N(C)S(C)(=O)=O)nc(-c2ccc(F)cc2)c1/C=C/[C@@H](O)C[C@@H](O)CC(=O)O [rosuvastatin]

pEC50 [3]: 7.54
Structure (SMILES): CC(C)c1c(C(=O)Nc2ccccc2)c(-c2ccccc2)c(-c2ccc(F)cc2)n1CC[C@@H](O)C[C@@H](O)CC(=O)O [atorvastatin]
